In brackets after ≈: the same amount, converted by molar mass. Activity calls are given as the source filed them. No rule for the calls is given here.
Legend:
Escherichia coli = experiment: Antibacterial activity against Escherichia coli after 24 hrs by broth microdilution method; assay type: functional, organism-based
Candida albicans = experiment: Antibacterial activity against Candida albicans after 24 hrs by broth microdilution method; assay type: functional, organism-based
[1] = Partition coefficient, log P of the compound; assay type: physicochemical; conditions: octanol/water
Staphylococcus aureus = experiment: Antibacterial activity against Staphylococcus aureus 134/93 after 24 hrs by broth microdilution method; assay type: functional; conditions: for MIC: Staphylococcus aureus, 134/93, 24 h
[2] = test system: Mycolicibacterium smegmatis; experiment: Antibacterial activity against Mycobacterium smegmatis SG987 after 24 hrs by broth microdilution method; assay type: functional; conditions: for MIC: Mycolicibacterium smegmatis, SG987, 24 h

| SMILES | Activity (Escherichia coli) | Activity (Candida albicans) | logP [1] | -logMIC (Staphylococcus aureus) | MIC (Staphylococcus aureus) [µM] | -logMIC [2] | MIC [2] [µM] |
| --- | --- | --- | --- | --- | --- | --- | --- |
| CCCCCCc1ccc2[nH]c(-c3ccccc3)c(C3=C(Br)C(=O)NC3=O)c2c1 | inactive | inactive | 4.39 | – | – | – | – |
| CCCc1ccc2[nH]c(-c3ccc(OC)cc3)c(C3=C(Br)C(=O)NC3=O)c2c1 | inactive | inactive | 3.45 | 6.3 | 0.45 (≈ 0.198 µg/mL) | 5.7 | 1.8 (≈ 0.791 µg/mL) |
| CCCCc1ccc2[nH]c(-c3ccccc3)c(C3=C(Br)C(=O)NC3=O)c2c1 | inactive | inactive | 3.74 | 6.6 | 0.24 (≈ 0.102 µg/mL) | 5.7 | 1.9 (≈ 0.804 µg/mL) |
| CCCCCCc1cccc2c(C3=C(Br)C(=O)NC3=O)c(-c3ccc(OC)cc3)[nH]c12 | inactive | inactive | 4.27 | 6.4 | 0.4 (≈ 0.193 µg/mL) | – | – |
| CCCCOc1ccc2[nH]c(-c3ccc(OC)cc3)c(C3=C(Br)C(=O)NC3=O)c2c1 | inactive | inactive | 3.43 | 7 | 0.1 (≈ 0.0469 µg/mL) | – | – |
| CCCCc1cccc2c(C3=C(Br)C(=O)NC3=O)c(-c3ccc(OC)cc3)[nH]c12 | inactive | inactive | 3.81 | 6.6 | 0.25 (≈ 0.113 µg/mL) | – | – |
| O=C(CCCCCCc1[nH]c2ccccc2c1C1=C(Br)C(=O)NC1=O)Nc1ccccc1 | inactive | inactive | 2.85 | 7 | 0.1 (≈ 0.0494 µg/mL) | 4.9 | 12.6 (≈ 6.23 µg/mL) |
| CCCCc1ccc2[nH]c(-c3cccc(OC)c3)c(C3=C(Br)C(=O)NC3=O)c2c1 | inactive | inactive | 3.81 | 5.5 | 3.4 (≈ 1.54 µg/mL) | 5.5 | 3.16 (≈ 1.43 µg/mL) |
| O=C1NC(=O)C(c2c(-c3ccc(OCc4ccccc4)cc3)[nH]c3ccccc23)=C1Br | inactive | inactive | 3.3 | 6.7 | 0.21 (≈ 0.0994 µg/mL) | 4.6 | 25.1 (≈ 11.9 µg/mL) |
| CCCCCCc1ccc2[nH]c(-c3cccc(OC)c3)c(C3=C(Br)C(=O)NC3=O)c2c1 | inactive | inactive | 4.26 | 4.6 | 26 (≈ 12.5 µg/mL) | 5.2 | 6.31 (≈ 3.04 µg/mL) |
| CCc1cccc2c(C3=C(Br)C(=O)NC3=O)c(-c3ccc(OC)cc3)[nH]c12 | inactive | inactive | 3.35 | 6.3 | 0.5 (≈ 0.213 µg/mL) | 4.5 | 29.4 (≈ 12.5 µg/mL) |
| COc1cccc(-c2[nH]c3ccc(C)cc3c2C2=C(Br)C(=O)NC2=O)c1 | inactive | inactive | 3.12 | 6.6 | 0.2 (≈ 0.0823 µg/mL) | 5.1 | 7.94 (≈ 3.27 µg/mL) |
| CCCCCOc1ccc2[nH]c(-c3ccc(OC)cc3)c(C3=C(Br)C(=O)NC3=O)c2c1 | inactive | inactive | 3.77 | – | – | – | – |
| Cc1ccc2[nH]c(-c3ccccc3)c(C3=C(Br)C(=O)NC3=O)c2c1 | inactive | inactive | 2.88 | 6.9 | 0.13 (≈ 0.0496 µg/mL) | 5.4 | 4.1 (≈ 1.56 µg/mL) |
| COc1ccc(-c2[nH]c3ccccc3c2C2=C(Br)C(=O)NC2=O)cc1 | inactive | inactive | 2.42 | 6.5 | 0.32 (≈ 0.127 µg/mL) | 4.8 | 15.8 (≈ 6.3 µg/mL) |
| O=C(O)c1cn(C2CC2)c2cc(N3CCNCC3)c(F)cc2c1=O [CIPROFLOXACIN] | – | – | – | 4.4 | 38.1 (≈ 12.6 µg/mL) | 5.9 | 1.2 (≈ 0.398 µg/mL) |
| CCCCOc1ccc(-c2[nH]c3ccccc3c2C2=C(Br)C(=O)NC2=O)cc1 | inactive | inactive | 3.87 | 6.3 | 0.45 (≈ 0.198 µg/mL) | 4.8 | 15.8 (≈ 6.96 µg/mL) |
| CCCCOc1ccc2[nH]c(-c3ccccc3)c(C3=C(Br)C(=O)NC3=O)c2c1 | inactive | inactive | 3.42 | 6.9 | 0.11 (≈ 0.0483 µg/mL) | 4.5 | 28.4 (≈ 12.5 µg/mL) |
| CCc1ccc2[nH]c(-c3ccccc3)c(C3=C(Br)C(=O)NC3=O)c2c1 | inactive | inactive | 3.15 | 6.9 | 0.13 (≈ 0.0514 µg/mL) | 5.4 | 4 (≈ 1.58 µg/mL) |
| O=C(CCCc1[nH]c2ccccc2c1C1=C(Br)C(=O)NC1=O)Nc1ccccc1 | inactive | inactive | 2.56 | 5.8 | 1.7 (≈ 0.769 µg/mL) | 4.3 | 55 (≈ 24.9 µg/mL) |

| SMILES | Activity (Escherichia coli) | Activity (Candida albicans) | logP [1] | -logMIC (Staphylococcus aureus) | MIC (Staphylococcus aureus) [µM] | -logMIC [2] | MIC [2] [µM] |
| --- | --- | --- | --- | --- | --- | --- | --- |
| CCCOc1ccc2[nH]c(-c3ccccc3)c(C3=C(Br)C(=O)NC3=O)c2c1 | inactive | inactive | 3.16 | 6 | 0.95 (≈ 0.404 µg/mL) | 4.2 | 58.8 (≈ 25 µg/mL) |
| CCCCCCCCOc1ccc(-c2[nH]c3ccccc3c2C2=C(Br)C(=O)NC2=O)cc1 | inactive | inactive | 5.21 | 4.3 | 50 (≈ 24.8 µg/mL) | 4 | 100 (≈ 49.5 µg/mL) |
| CCCCCCOc1ccc2[nH]c(-c3ccc(OC)cc3)c(C3=C(Br)C(=O)NC3=O)c2c1 | inactive | inactive | 4.1 | – | – | – | – |
| CCCCCOc1ccc(-c2[nH]c3ccccc3c2C2=C(Br)C(=O)NC2=O)cc1 | inactive | inactive | 4.2 | 6.1 | 0.88 (≈ 0.399 µg/mL) | 3.9 | 126 (≈ 57.1 µg/mL) |
| CCCCCc1ccc2[nH]c(-c3ccc(OC)cc3)c(C3=C(Br)C(=O)NC3=O)c2c1 | inactive | inactive | 4.1 | 6.1 | 0.85 (≈ 0.397 µg/mL) | 5.5 | 3.3 (≈ 1.54 µg/mL) |
| CCCc1ccc2[nH]c(-c3ccccc3)c(C3=C(Br)C(=O)NC3=O)c2c1 | inactive | inactive | 3.43 | 6.3 | 0.5 (≈ 0.205 µg/mL) | 5.4 | 3.8 (≈ 1.56 µg/mL) |
| CCCCOc1ccc2[nH]c(-c3cccc(OC)c3)c(C3=C(Br)C(=O)NC3=O)c2c1 | inactive | inactive | 3.46 | 5.5 | 3.3 (≈ 1.55 µg/mL) | 5.2 | 6.31 (≈ 2.96 µg/mL) |
| CCOc1ccc2[nH]c(-c3cccc(OC)c3)c(C3=C(Br)C(=O)NC3=O)c2c1 | inactive | inactive | 2.97 | 5.5 | 3.5 (≈ 1.54 µg/mL) | 5.2 | 6.31 (≈ 2.78 µg/mL) |
| CCCCCCOc1ccc2[nH]c(-c3cccc(OC)c3)c(C3=C(Br)C(=O)NC3=O)c2c1 | inactive | inactive | 3.92 | 4.9 | 12.6 (≈ 6.27 µg/mL) | 5.2 | 6.31 (≈ 3.14 µg/mL) |
| CCc1ccc2[nH]c(-c3ccc(OC)cc3)c(C3=C(Br)C(=O)NC3=O)c2c1 | inactive | inactive | 3.23 | 6.6 | 0.23 (≈ 0.0978 µg/mL) | 5.4 | 3.67 (≈ 1.56 µg/mL) |
| Cc1cccc(NC(=O)CCCc2[nH]c3ccccc3c2C2=C(Br)C(=O)NC2=O)c1 | inactive | inactive | 2.56 | 6.1 | 0.79 (≈ 0.368 µg/mL) | 4.6 | 27 (≈ 12.6 µg/mL) |
| CCCCCCCCCCOc1ccc(-c2[nH]c3ccccc3c2C2=C(Br)C(=O)NC2=O)cc1 | inactive | inactive | 5.94 | – | – | 4 | 100 (≈ 52.3 µg/mL) |
| CCCCCc1cccc2c(C3=C(Br)C(=O)NC3=O)c(-c3ccccc3)[nH]c12 | inactive | inactive | 4.11 | 6.3 | 0.5 (≈ 0.219 µg/mL) | 4.9 | 14.3 (≈ 6.25 µg/mL) |
| CCOc1ccc2[nH]c(-c3ccc(OC)cc3)c(C3=C(Br)C(=O)NC3=O)c2c1 | inactive | inactive | 2.77 | 5.7 | 2 (≈ 0.883 µg/mL) | 4.8 | 14.1 (≈ 6.22 µg/mL) |
| CCCCCc1ccc2[nH]c(-c3ccccc3)c(C3=C(Br)C(=O)NC3=O)c2c1 | inactive | inactive | 4.07 | 6 | 0.91 (≈ 0.398 µg/mL) | 5.5 | 3.6 (≈ 1.57 µg/mL) |
| O=C1NC(=O)C(c2c(-c3ccc(OCc4cccc5ccccc45)cc3)[nH]c3ccccc23)=C1Br | inactive | inactive | 3.76 | 5.8 | 1.5 (≈ 0.785 µg/mL) | 5.5 | 3.16 (≈ 1.65 µg/mL) |
| CCCOc1ccc2[nH]c(-c3ccc(OC)cc3)c(C3=C(Br)C(=O)NC3=O)c2c1 | inactive | inactive | 3.12 | 6.4 | 0.44 (≈ 0.2 µg/mL) | – | – |
| CCCCCCOc1ccc2[nH]c(-c3ccccc3)c(C3=C(Br)C(=O)NC3=O)c2c1 | inactive | inactive | 4.08 | – | – | – | – |
| CCCCCCc1ccc2[nH]c(-c3ccc(OC)cc3)c(C3=C(Br)C(=O)NC3=O)c2c1 | inactive | inactive | – | – | – | – | – |

— ChEMBL document CHEMBL1149805, “Antibacterial activity of a novel series of 3-bromo-4-(1H-3-indolyl)-2,5-dihydro-1H-2,5-pyrroledione derivatives--an extended structure-activity relationship study” (Eur J Med Chem, 2008)
